# Assay results reported in US9464077B2, “Nitrogen-containing aromatic heterocyclic compound” (Astellas Pharma Inc., priority 2012, dated 2016).
# Tests used:
# [1] = test system: FGFR3-TACC3_v1 (N-FLAG) fusion polypeptide; experiment: In vitro kinase activity inhibition (HTRF KinEASE-TK); assay type: biochemical, human; conditions: 100 μM ATP
# [2] = test system: UM-UC-14 (FGFR3_S249C-positive cells, bladder cancer); experiment: Antitumor test on UM-UC-14 subcutaneous xenograft; assay type: in vivo, nude mice; conditions: oral, 1 mg/kg/day, once a day, tumor volume at Day 11 vs Day 1
# Experimental: 3×10^6 UM-UC-14 cells per 0.1 mL (PBS+matrigel, 1:1) were inoculated subcutaneously into the right flank of nude mice (CAnN, Cg-Foxn1nu/CrlCrlj (nu/nu), male, 4- to 5-week-old), and when their tumor size reached about 250 mm^3, drug administration was started (Day 1). The drug was administered once a day and the tumor size was measured with a caliper and the body weight was also measured every two or three days. The antitumor effect was finally determined based on the tumor volume (mm^3; minor axis (mm)×minor axis (mm)×major axis (mm)/2) at Day 11 (n=3-5). To the control group, 0.5% MC (methyl cellulose) was administered. […] “% regression” indicates what percentage of regression could be achieved compared with the tumor volume at Day 1. Here, the tumor volume at Day 1 means tumor volume immediately before drug administration.
smiles,measurement,setting,value
COc1cc(OC)c(F)c(COc2cnc(Nc3ccc(N4CCC(NCCO)CC4)cc3)nc2)c1F [Example 299],rate of inhibiting kinase activity v1,[1]; 1 nM,35%
same,rate of inhibiting kinase activity v1,[1]; 10 nM,84%
same,rate of inhibiting kinase activity v1,[1]; 100 nM,94%
same,"Antitumor Activity, % regression",[2],15%
